Source: patent US20230332232A1, “COMPOSITIONS AND METHODS FOR DIAGNOSING AND TREATING A DYSTONIA” (Duke University, priority 2020, published 2023)

Legend:
WT TorsinA = settings: cited from earlier work
[1] = test system: wild-type (WT) murine embryonic fibroblasts (MEFs); assay: microRNA-seq of EVs from WT MEFs treated with drug, compared with non-treated WT MEFs; assay type: cell-based, mouse; settings: for ISRIB Direction Same as dE?: EVs of WT MEFs
Procedure: In addition to proteomic analysis, total RNA-seq and microRNA-seq was performed on RNA isolated in parallel from the EV samples of Cohort 2. As with the proteomic analysis, one biological replicate was prepared from 3 distinct biological clonal cell lines for each genotype. Here, EVs were isolated from conditioned cell culture media by 18 hour ultracentrifugation at 100,000 g. RNA was extracted using the Qiagen miRNeasy Micro Kit (Cat. No. 217084) according to the manufacturer's protocol. Two RNA fractions were extracted from each sample, one enriched in coding and non-coding RNA species>200 nt (“Total RNA” fraction) and one enriched for small RNAs<200 nt (“miRNA” fraction).
RNA samples were then submitted to the Duke Sequencing and Genomic Technologies shared resource for further quality control and sequencing. Samples were assessed for concentration and integrity by Qubit and Fragment Analyzer. The miRNA fractions were 4.16 ng/μL-47.57 ng/μL and total RNA fractions were 3.8 ng/μL-43.6 ng/μL. The small RNA library was prepared using the QIAseq miRNA Library Kit (Cat No./ID: 331505) and sequenced on the Illumina NextSeq 500 High-Output platform with 75 bp single-reads. The total RNA library was prepared using the Illumina TruSeq Stranded Total RNA-seq Kit with Ribozero Gold ribosomal RNA reduction and sequenced on the Illumina NovaSeq 6000 S1 platform with 100 bp paired-end reads. Sequencer lane pooling and read depth are attached in the Excel data summary (See “RNA QC” Tab).
Data processing and analysis were performed in collaboration with the Duke Genomic Analysis and Bioinformatics shared resource. RNA-seq data was processed using the TrimGalore toolkit (http://www.bioinformatics.babraham.ac.uk/projects/trim_galore), which employs Cutadapt(Martin M. (2011) EMBnet.journal. 17(1):10-12) to trim low quality bases and Illumina sequencing adapters from the 3′ end of the reads. Only reads that were 20 nt or longer after trimming were kept for further analysis. Reads were mapped to the mouse genome and transcriptome (Kersey P J, et al. (2012) Nucleic Acids Res. 40(Database issue):D91-97) using the STAR RNA-seq alignment tool (Dobin A, et al. (2013). Bioinformatics. 29(1):15-21). If the reads mapped to a single genomic location, then they were kept for subsequent analysis. Gene counts were compiled using the HTSeq tool (http://www-huber.embl.de/users/anders/HTSeq/). Only genes that had at least 10 reads in any given library were used in subsequent analysis. Normalization and differential expression was carried out using the DESeq26 Bioconductor (Huber W, et al. (2015) Nat Methods. 12(2):115-121) package with the R statistical programming environment (www.r-project.org). The false discovery rate was calculated to control for multiple hypothesis testing and p-values were adjusted to an FDR of 5%.
694 miRNAs were initially examined with respect to QC, genotype, RTV effects, and ISRIB effects. This subset was the “Full miRNA” subset. FIG. 9A and FIG. 9B show the RTV effect on EV composition in DYT1 cells compared to WT cells for 279 miRNAs, respectively.

[2] = test system: DYT1 knockin (Tor1a^delGAG/+) murine embryonic fibroblasts (MEFs); assay: Untargeted LC/MS/MS proteomics of EVs from DYT1 MEFs exposed 24 hours to drug, compared with untreated DYT1 (Het) MEFs; assay type: cell-based, mouse
[3] = ISRIB-treated vs non-treated WT MEF EVs

O=C(COc1ccc(Cl)cc1)NC1CCC(NC(=O)COc2ccc(Cl)cc2)CC1 (stereo not shown) [ISRIB]
subcellular localization of WT TorsinA (WT TorsinA): alter the normal subcellular localization of WT TorsinA in a way that was more similar to the distribution of dE TorsinA in DYT1 | mmu-miR-147-5p: ISRIB Direction Same as dE? [1, 3]: yes | mmu-miR-147-5p: ISRIBvWT Z Score [1, 3]: −0.31 | mmu-miR-181a-1-3p: ISRIBvWT Z Score [1, 3]: −0.20 | mmu-miR-331-5p: ISRIBvWT Z Score [1, 3]: 0.56 | mmu-miR-668-3p: ISRIBvWT Z Score [1, 3]: −1.49 | mmu-miR-1930-5p: ISRIB Direction Same as dE? [1, 3]: yes | mmu-miR-1930-5p: ISRIBvWT Z Score [1, 3]: 0.71 | mmu-miR-1943-5p: ISRIBvWT Z Score [1, 3]: −1.07 | mmu-miR-1955-5p: ISRIBvWT Z Score [1, 3]: 1.21 | mmu-miR-3072-5p: ISRIBvWT Z Score [1, 3]: 0.00 | mmu-miR-3076-3p: ISRIBvWT Z Score [1, 3]: 0.25 | mmu-miR-3088-3p: ISRIBvWT Z Score [1, 3]: −0.45 | mmu-miR-6936-3p: ISRIBvWT Z Score [1, 3]: −0.38 | mmu-miR-7224-3p: ISRIB Direction Same as dE? [1, 3]: yes | mmu-miR-7224-3p: ISRIBvWT Z Score [1, 3]: −1.07 | mmu-miR-467d-3p: ISRIB Direction Same as dE? [1, 3]: yes | mmu-miR-467d-3p: ISRIBvWT Z Score [1, 3]: −0.71 | ISRIB Direction Same as dE? ([1]; mmu-let-7f-5p): yes | ISRIB Direction Same as dE? ([1]; mmu-let-7i-5p): yes | ISRIB Direction Same as dE? ([1]; mmu-miR-30e-5p): yes | ISRIB Direction Same as dE? ([1]; mmu-miR-19b-3p): yes | ISRIB Direction Same as dE? ([1]; mmu-miR-22-3p): yes | ISRIB Direction Same as dE? ([1]; mmu-miR-26b-Sp): yes | ISRIB Direction Same as dE? ([1]; mmu-miR-30a-5p): yes | ISRIB Direction Same as dE? ([1]; mmu-miR-30c-5p): yes | ISRIB Direction Same as dE? ([1]; mmu-miR-31-5p): yes | ISRIB Direction Same as dE? ([1]; mmu-miR-34a-5p): yes | ISRIB Direction Same as dE? ([1]; mmu-miR-34c-5p): yes | ISRIB Direction Same as dE? ([1]; mmu-miR-93-5p): yes | ISRIB Direction Same as dE? ([1]; mmu-miR-96-5p): yes | ISRIB Direction Same as dE? ([1]; mmu-miR-103-3p): yes | ISRIB Direction Same as dE? ([1]; mmu-miR-125b-1-3p): yes | ISRIB Direction Same as dE? ([1]; mmu-miR-130b-3p): yes | ISRIB Direction Same as dE? ([1]; mmu-miR-135a-5p): yes | ISRIB Direction Same as dE? ([1]; mmu-miR-140-3p): yes | ISRIB Direction Same as dE? ([1]; mmu-miR-148a-3p): yes | ISRIB Direction Same as dE? ([1]; mmu-miR-182-5p): yes | ISRIB Direction Same as dE? ([1]; mmu-miR-183-5p): yes | ISRIB Direction Same as dE? ([1]; mmu-miR-187-3p): yes | ISRIB Direction Same as dE? ([1]; mmu-miR-192-5p): yes | ISRIB Direction Same as dE? ([1]; mmu-miR-199a-3p): yes | ISRIB Direction Same as dE? ([1]; mmu-miR-199b-3p): yes | ISRIB Direction Same as dE? ([1]; mmu-miR-296-3p): yes | ISRIB Direction Same as dE? ([1]; mmu-miR-298-5p): yes | ISRIB Direction Same as dE? ([1]; mmu-miR-344-3p): yes | ISRIB Direction Same as dE? ([1]; mmu-miR-362-3p): yes | ISRIB Direction Same as dE? ([1]; mmu-miR-362-5p): yes | ISRIB Direction Same as dE? ([1]; mmu-miR-532-5p): yes | ISRIB Direction Same as dE? ([1]; mmu-miR-542-5p): yes | ISRIB Direction Same as dE? ([1]; mmu-miR-671-5p): yes | ISRIB Direction Same as dE? ([1]; mmu-miR-1291): yes | ISRIB Direction Same as dE? ([1]; mmu-miR-3535): yes | ISRIB Direction Same as dE? ([1]; mmu-miR-5121): yes | ISRIB Direction Same as dE? ([1]; mmu-miR-30h-5p): yes | ISRIB Direction Same as dE? ([1]; mmu-miR-344d-3p): yes

O=C(/C=C/c1ccccc1)NC(NC(=S)Nc1cccc2cccnc12)C(Cl)(Cl)Cl (stereo not shown) [SAL, Salubrinal]
SAL Direction Opposite ISRIB? ([2]; EV protein: ATP- binding cassette sub-family [?] member 1): yes | SAL Direction Opposite ISRIB? ([2]; EV protein: Nerine arginine-rich splicing factor [?]): yes
